Marks after values point to notes of the source that are not given here.
Columns and labels:
hMC5r = biological target: T1, hMC5r (Homo sapiens, UniProt P33032); assay: cAMP assay, human recombinant CHO cells, α-MSH reference; format: cell-based; details: vs α-MSH
T1 construct: expressed in transfected cells; host or cells: CHO
Protocol: (§1) Melanocortin receptor binding and function of Compound 7.1 was tested. Ki binding values (nM) were calculated utilizing the percent inhibit of the binding of iodine-125 labeled NDP-α-MSH against B16-F1 cells for mMC1r, and human recombinant CHO cells for hMC3r, hMC4r and hMC5r, with the inhibition constant calculated using the Cheng Prusoff equation. Functional results (EC50 and efficacy) were calculated utilizing cAMP assays with NDP-α-MSH for mMC1r, hMC3r and hMC4r, ACTH for hMC2r, and α-MSH for hMC5r for agonist measures, with the same target cells for melanocortin receptors mMC1r, hMC3r, hMC4r and hMC5r, and human recombinant Cloudman M3 cells for hMC2r.

mMC1r = biological target: T2, mMC1r (Mus musculus, UniProt Q01727); assay: cAMP assay, B16-F1 cells, NDP-α-MSH reference; format: cell-based; details: vs NDP-α-MSH
T2 construct: endogenous in cells; host or cells: B16-F1 mouse melanoma cells
Protocol: as §1

C57BI/6 DIO mice = assay: Oral administration in DIO mice (comparison to MC4r knockout mice); format: in vivo, mouse
Protocol: (§2) Feed intake and body weight was evaluated in MCr4 knockout (MC4r −/−) mice (Jackson Laboratories) compared to C57BI/6 DIO mice. […] Feed weights were taken at time 0, 2, 6 and 24 hours post lights out. […] The change in body weight is shown in FIG. 4 starting on study day 5, the first day of administraton of compound 7.1. […] Additionally, there was a statistically significant mean difference, 2.8%, 95% Cl (1.281, 4.253), and p value<0.0001 between DIO mice receiving compound 7.1 and MC4r (−/−) receiving compound 7.1.

C57BL/6 male DIO mice = assay: Body weight and food intake in vivo study in diet induced obese (DIO) mice; parameters: species or system mouse
Protocol: Compound 7.1 was assessed in a body weight and food intake in vivo study in diet induced obese (DIO) mice. C57BL/6 male DIO mice were utilized, that were 17 weeks of age on arrival. Animals were pre-conditioned on a high-fat diet for 11 weeks by Jackson Labs. […] Animals were single housed within a limited access rodent facility, and provided ad libitum with a commercial rodent diet and free access to drinking water. Animals were randomized into five groups, a vehicle group, three dose levels of compound 7.1 (3 mg/kg, 10 mg/kg and 30 mg/kg), and Peptide A, a positive control cyclic peptide of the formula Ac-Arg-cyclo(Om-Asn-D-Phe-Arg-Trp-Glu)-NH2. Following three days of sham dosing, animals were dosed for three days, with vehicle or Compound 7.1 dosed orally once daily at within one hour of lights out in the AM, and Peptide A dosed by subcutaneous injection twice daily within one hour before lights out and six hours after lights out. Body weights were measured one hour prior to lights out, and feed weights were measured both one hour prior to lights out and six hours post lights out.
• *p<0.05 vs. sham (vehicle control) using two-way ANOVA followed by Dunnett's post-test. • **p<0.01 vs sham (vehicle control) using two-way ANOVA followed by Dunnett's post-test.

hMC2r = biological target: T3, hMC2r (Homo sapiens, UniProt Q01718); assay: cAMP assay, human recombinant Cloudman M3 cells, ACTH reference; format: cell-based; details: vs ACTH
T3 construct: expressed in transfected cells; host or cells: Cloudman M3 cells
Protocol: as §1

hMC3r = biological target: T4, hMC3r (Homo sapiens, UniProt P41968); assay: cAMP assay, human recombinant CHO cells, NDP-α-MSH reference; format: cell-based; details: vs NDP-α-MSH
T4 construct: expressed in transfected cells; host or cells: CHO
Protocol: as §1

[1] = Plasma concentrations following oral administration; format: in vivo, Sprague-Dawley rats; details: Sprague-Dawley, rat, oral 30 mg/kg
Protocol: Plasma samples were measured at 15 minutes (2 animals) and 30 minutes, 1 hour, 2 hours, 4 hours, 8 hours and 24 hours (3 animals) post oral administration.

MC4r (−/−) mice = assay: Oral administration in MC4r knockout mice; format: in vivo, mouse; details: 30 mg/kg twice daily oral gavage
Protocol: as §2

[2] = tested on: male mice homogygous for the obese spontaneous mutation, Lep^ob; assay: Oral administration in leptin-deficient obese mice; format: in vivo, mouse; details: 30 mg/kg twice daily for six consecutive days
Protocol: Male mice homogygous for the obese spontaneous mutation, Lep^ob, with resulting leptin protein deficiency, were individually housed with free access to feed and drinking water. All animals were sham-dosed twice daily for five days prior to initial drug administration, utilizing a vehicle dose of 3.2% mannitol and […] tris(hydroxymethyl)aminomethane at pH 7.4. On day 6 a cohort of the mice received compound 7.1 dissolved into the vehicle twice daily for six consecutive days at a dose of 30 mg/kg. Body weight of animals was measured daily, with data analyzed as the percent change from baseline of each individual animal, where baseline was defined as the average weight during the first three days of sham dosing. The averaged percent change from baseline of a vehicle group was then subtracted from each value to correct for continued weight gain or other study-wide factors. The change in body weight is shown in FIG. 3 starting on study day […], the first day of administration of compound 7.1.

MC4r = MC4r (Homo sapiens, UniProt P32245); assay: cAMP assay, human recombinant CHO cells, NDP-α-MSH reference; format: cell-based; parameters: expressed in transfected cells; host or cells: CHO; details: vs NDP-α-MSH
Protocol: as §1

T4 sequence (P41968 whole entry): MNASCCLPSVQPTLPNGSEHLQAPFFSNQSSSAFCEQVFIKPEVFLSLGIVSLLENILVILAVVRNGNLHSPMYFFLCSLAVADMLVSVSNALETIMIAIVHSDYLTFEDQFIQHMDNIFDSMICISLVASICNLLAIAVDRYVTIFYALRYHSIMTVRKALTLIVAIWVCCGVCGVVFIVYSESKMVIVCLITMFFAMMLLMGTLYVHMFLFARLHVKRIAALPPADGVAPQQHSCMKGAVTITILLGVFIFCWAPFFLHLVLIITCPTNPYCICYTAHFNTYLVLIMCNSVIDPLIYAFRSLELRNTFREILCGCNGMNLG
T1 sequence (P33032 whole entry): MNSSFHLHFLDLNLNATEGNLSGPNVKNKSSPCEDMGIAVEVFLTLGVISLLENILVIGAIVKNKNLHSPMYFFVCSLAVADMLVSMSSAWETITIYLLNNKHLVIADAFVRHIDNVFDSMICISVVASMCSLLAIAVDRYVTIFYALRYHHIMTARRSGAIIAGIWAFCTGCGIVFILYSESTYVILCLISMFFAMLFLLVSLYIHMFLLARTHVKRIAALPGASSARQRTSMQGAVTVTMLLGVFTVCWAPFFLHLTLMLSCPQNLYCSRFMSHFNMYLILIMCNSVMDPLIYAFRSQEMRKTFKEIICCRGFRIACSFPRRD
T2 sequence (Q01727 whole entry): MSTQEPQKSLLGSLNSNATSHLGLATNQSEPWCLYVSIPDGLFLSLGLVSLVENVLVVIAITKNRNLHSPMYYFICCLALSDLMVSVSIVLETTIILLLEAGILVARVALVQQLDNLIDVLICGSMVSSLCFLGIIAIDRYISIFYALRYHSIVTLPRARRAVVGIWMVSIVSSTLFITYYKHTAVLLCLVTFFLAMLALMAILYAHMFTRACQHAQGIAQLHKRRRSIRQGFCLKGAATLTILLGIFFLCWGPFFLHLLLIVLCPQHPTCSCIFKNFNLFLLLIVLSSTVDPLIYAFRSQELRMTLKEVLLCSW
Sequence of MC4r (P32245 whole entry): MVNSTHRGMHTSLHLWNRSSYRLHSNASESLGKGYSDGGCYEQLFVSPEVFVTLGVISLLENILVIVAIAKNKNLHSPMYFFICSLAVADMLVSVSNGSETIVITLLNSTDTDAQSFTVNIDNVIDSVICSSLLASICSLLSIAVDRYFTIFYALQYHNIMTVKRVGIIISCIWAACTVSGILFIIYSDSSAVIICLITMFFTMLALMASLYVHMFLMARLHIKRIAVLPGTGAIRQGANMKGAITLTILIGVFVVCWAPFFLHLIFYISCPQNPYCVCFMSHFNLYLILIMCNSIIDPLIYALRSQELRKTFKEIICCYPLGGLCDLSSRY
T3 sequence (Q01718 whole entry): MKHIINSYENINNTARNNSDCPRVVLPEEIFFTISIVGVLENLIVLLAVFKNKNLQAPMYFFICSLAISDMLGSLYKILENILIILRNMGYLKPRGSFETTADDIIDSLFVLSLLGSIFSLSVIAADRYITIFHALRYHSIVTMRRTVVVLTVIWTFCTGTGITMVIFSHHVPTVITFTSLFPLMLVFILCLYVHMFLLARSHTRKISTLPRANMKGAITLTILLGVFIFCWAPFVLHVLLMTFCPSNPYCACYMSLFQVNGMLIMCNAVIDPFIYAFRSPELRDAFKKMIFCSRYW
T3 sequence (Q9D159 whole entry partner): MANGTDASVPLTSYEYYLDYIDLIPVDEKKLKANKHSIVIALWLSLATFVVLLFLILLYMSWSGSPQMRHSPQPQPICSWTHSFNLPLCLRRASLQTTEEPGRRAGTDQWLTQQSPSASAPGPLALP

CC(=O)N1CCC(N(CC(C)C)N2CCN(C(=O)[C@@H](Cc3ccc(Cl)cc3)NC(=O)C(C)(C)N)CC2)CC1 [Compound 7.1, N-[(1R)-2-[4-[(1-acetyl-4-piperidyl)-isobutyl-amino]piperazin-1-yl]-1-[(4-chlorophenyl)methyl]-2-oxo-ethyl]-2-amino-2-methyl-propanamide]
cAMP Efficacy (hMC5r): 20% | cAMP Efficacy (mMC1r): 72% | food consumption vs vehicle only (C57BI/6 DIO mice; 30 mg/kg twice daily oral gavage, DIO mice, 6 and 24 hour timepoints): significantly decreased | mean difference in body weight change between DIO mice and MC4r (−/−) mice receiving compound (C57BI/6 DIO mice; 30 mg/kg twice daily oral, p value<0.0001): 2.8% | body weight vs own vehicle group (C57BI/6 DIO mice; 30 mg/kg two daily administrations via oral gavage, DIO mice): significant body weight loss | mean percentage body weight change difference between treated group and vehicle (C57BI/6 DIO mice; DIO mice, 30 mg/kg twice daily oral): 4.9% | Body Weight Change (%) Mean (C57BL/6 male DIO mice; 3 mg/kg orally once daily, Day 0): 0% | Food Intake - 24 Hours (g) Mean (C57BL/6 male DIO mice; 3 mg/kg orally once daily, Day 0, 24 hours post lights out): 1.90 g | Body Weight Change (%) Mean (C57BL/6 male DIO mice; 3 mg/kg orally once daily, Day 1): −1.97% | Food Intake - 24 Hours (g) Mean (C57BL/6 male DIO mice; 3 mg/kg orally once daily, Day 1, 24 hours post lights out): 2.03 g | Body Weight Change (%) Mean (C57BL/6 male DIO mice; 3 mg/kg orally once daily, Day 2): −2.92% | Food Intake - 24 Hours (g) Mean (C57BL/6 male DIO mice; 3 mg/kg orally once daily, Day 2, 24 hours post lights out): 2.11 g | Body Weight Change (%) Mean (C57BL/6 male DIO mice; 3 mg/kg orally once daily, Day 3): −3.80* % | body weight (C57BL/6 male DIO mice; 3 mg/kg, day 3): body weight loss on day 3 | Body Weight Change (%) Mean (C57BL/6 male DIO mice; 10 mg/kg orally once daily, Day 0): 0% | Food Intake - 24 Hours (g) Mean (C57BL/6 male DIO mice; 10 mg/kg orally once daily, Day 0, 24 hours post lights out): 1.82 g | Body Weight Change (%) Mean (C57BL/6 male DIO mice; 10 mg/kg orally once daily, Day 1): −2.48* % | Food Intake - 24 Hours (g) Mean (C57BL/6 male DIO mice; 10 mg/kg orally once daily, Day 1, 24 hours post lights out): 1.78 g | Body Weight Change (%) Mean (C57BL/6 male DIO mice; 10 mg/kg orally once daily, Day 2): −3.77** % | Food Intake - 24 Hours (g) Mean (C57BL/6 male DIO mice; 10 mg/kg orally once daily, Day 2, 24 hours post lights out): 2.20 g | Body Weight Change (%) Mean (C57BL/6 male DIO mice; 10 mg/kg orally once daily, Day 3): −4.35** % | Body Weight Change (%) Mean (C57BL/6 male DIO mice; 30 mg/kg orally once daily, Day 0): 0% | Food Intake - 24 Hours (g) Mean (C57BL/6 male DIO mice; 30 mg/kg orally once daily, Day 0, 24 hours post lights out): 1.62* g | Body Weight Change (%) Mean (C57BL/6 male DIO mice; 30 mg/kg orally once daily, Day 1): −4.41** % | Food Intake - 24 Hours (g) Mean (C57BL/6 male DIO mice; 30 mg/kg orally once daily, Day 1, 24 hours post lights out): 1.60* g | Body Weight Change (%) Mean (C57BL/6 male DIO mice; 30 mg/kg orally once daily, Day 2): −5.82** % | Food Intake - 24 Hours (g) Mean (C57BL/6 male DIO mice; 30 mg/kg orally once daily, Day 2, 24 hours post lights out): 1.91* g | Body Weight Change (%) Mean (C57BL/6 male DIO mice; 30 mg/kg orally once daily, Day 3): −7.08** % | feed intake (C57BL/6 male DIO mice; 30 mg/kg, 24 hours post lights out, entirety of the study, vs sham): significantly inhibited feed intake | body weight (C57BL/6 male DIO mice; daily 10 mg/kg and 30 mg/kg, day 1 to 3): significant body weight loss | cAMP Efficacy (hMC2r): 22% | cAMP Efficacy (hMC3r): 28% | Tmax [1]: 2 h | food consumption vs vehicle only (MC4r (−/−) mice): no differences in food consumption | decrease in body weight compared to vehicle controls [2]: 4.8% | cAMP Efficacy (MC4r): 91%
